Measured values published in publication PMC7894401 (CPT: Pharmacometrics & Systems Pharmacology, 2020).
Values joined by “and” are separate entries in the source; they are usually repeats but may differ in a detail not shown here. Equal values may be shown once. Read-outs that look alike come from different tables or passages of the source.

How the values were obtained:
PBPK model = assay: PBPK model; design: species or system human
[1] = Human ADME study with 14C-labelled drug: excretion and metabolite recovery; type: in vivo; conditions: human ADME study (ertugliflozin ref 12, dapagliflozin ref 23)
PBPK = assay: PBPK; design: species or system human; conditions: dapagliflozin with MFA
UGT1A9 [2] = molecular target: T1, UGT1A9 (Homo sapiens, UniProt O60656); assay: UGT1A9 contribution to metabolism; type: in vitro ADME; conditions: for fm,UGT1A9 observed: calculated from clinical ADME and reaction phenotyping data; for microsomal CLint: human
T1 sequence (O60656 26-530): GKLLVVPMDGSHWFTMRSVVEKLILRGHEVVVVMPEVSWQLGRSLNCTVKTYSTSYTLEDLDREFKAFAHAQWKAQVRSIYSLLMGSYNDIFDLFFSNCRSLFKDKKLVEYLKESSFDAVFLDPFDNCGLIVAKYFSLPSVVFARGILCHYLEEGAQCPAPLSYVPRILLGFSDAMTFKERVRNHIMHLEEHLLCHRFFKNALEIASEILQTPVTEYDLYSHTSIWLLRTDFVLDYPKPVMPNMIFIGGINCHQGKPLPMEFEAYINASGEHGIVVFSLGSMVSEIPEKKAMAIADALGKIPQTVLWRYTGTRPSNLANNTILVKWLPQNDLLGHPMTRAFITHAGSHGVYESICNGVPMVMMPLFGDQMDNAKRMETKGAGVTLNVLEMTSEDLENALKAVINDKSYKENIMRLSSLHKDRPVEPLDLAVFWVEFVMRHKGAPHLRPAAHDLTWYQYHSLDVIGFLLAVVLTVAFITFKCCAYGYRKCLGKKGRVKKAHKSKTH

UGT2B4/2B7 [3] = assay: UGT2B4/2B7 contribution to metabolism; type: in vitro ADME, human; conditions: for fm,UGT2B7 observed: calculated from clinical ADME and reaction phenotyping data
[4] = tested on: UGT2B7 (UGT2B4/2B7 contribution assigned to UGT2B7); assay: UGT2B4/2B7 contribution to metabolism; type: in vitro ADME, human; conditions: human
CYP = assay: Overall oxidative; type: in vitro ADME; conditions: human, human liver microsomes (model input, not an incubation)
[5] = Simcyp input, cited from earlier work; for LogP: ref 42 (ertugliflozin), DrugBank 50 (dapagliflozin), DrugBank 49 (MFA)
[6] = blood/plasma ratio; ref 45 (ertugliflozin), 46 (dapagliflozin); cited from earlier work
Caco‐2 = conditions: ref 17 (ertugliflozin), 46 (dapagliflozin); cited from earlier work
[7] = cited from earlier work; for Vss: after i.v. administration; for CLiv: intravenous plasma clearance
[8] = human ADME study, ref 12 (ertugliflozin), 23 (dapagliflozin), cited from earlier work; for Renal excretion of unchanged drug: % of dose
[9] = cited from earlier work
UGT = conditions: ref 18 (ertugliflozin), 39 (dapagliflozin); cited from earlier work
CYP3A4 [10] = assay: CYP3A4 contribution to metabolism; type: in vitro ADME, human
CYP3A5 [11] = assay: CYP3A5 contribution to metabolism; type: in vitro ADME, human
CYP2C8 [12] = assay: CYP2C8 contribution to metabolism; type: in vitro ADME, human
[13] = fraction unbound in plasma; ref 45 (ertugliflozin), 46 (dapagliflozin); cited from earlier work
UGT1A9 [14] = molecular target: T1, UGT1A9; conditions: in vitro UGT reaction phenotyping; cited from earlier work
UGT2B4/2B7 [15] = conditions: cited from earlier work
CYP3A4 [16] = conditions: in vitro CYP reaction phenotyping, cited from earlier work
CYP3A5 [17] = conditions: in vitro CYP reaction phenotyping, cited from earlier work
CYP2C8 [18] = conditions: in vitro CYP reaction phenotyping, cited from earlier work
UGT2B4 = molecular target: T2, UGT2B4 (Homo sapiens, UniProt P06133); assay: Mefenamic acid inhibition of UGT2B4; type: biochemical; conditions: HLM, 1–100 µM
T2 sequence (P06133 24-528): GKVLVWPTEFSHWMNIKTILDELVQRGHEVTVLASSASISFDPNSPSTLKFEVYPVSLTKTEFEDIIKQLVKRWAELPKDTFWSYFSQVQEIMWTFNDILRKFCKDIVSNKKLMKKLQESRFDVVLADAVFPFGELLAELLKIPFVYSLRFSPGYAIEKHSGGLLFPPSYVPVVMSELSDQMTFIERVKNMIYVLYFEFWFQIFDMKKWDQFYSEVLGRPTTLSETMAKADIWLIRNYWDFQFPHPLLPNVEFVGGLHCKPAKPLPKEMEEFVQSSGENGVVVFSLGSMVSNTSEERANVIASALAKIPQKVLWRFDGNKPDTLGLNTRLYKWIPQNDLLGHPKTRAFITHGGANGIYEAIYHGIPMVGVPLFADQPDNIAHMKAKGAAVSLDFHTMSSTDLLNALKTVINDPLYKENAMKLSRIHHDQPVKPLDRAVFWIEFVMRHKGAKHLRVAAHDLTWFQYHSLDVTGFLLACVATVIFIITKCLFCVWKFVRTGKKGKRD

UGT1A9 [19] = molecular target: T1, UGT1A9; assay: In vivo Ki of MFA fitted in the PBPK model to the clinical MFA–dapagliflozin DDI; conditions: UGT1A9 and UGT2B7, relative potencies kept
[20] = probenecid 500-mg twice-daily dose
[21] = dapagliflozin multiple oral dose 10 mg once daily
[22] = dapagliflozin multiple oral dose 50 mg once daily
[23] = dapagliflozin single oral dose 10 mg
[24] = ref 15 (ertugliflozin), 38 (dapagliflozin)
[25] = dapagliflozin single oral dose 10 mg, geometric mean
[26] = ertugliflozin multiple oral dose 5 mg once daily
[27] = ertugliflozin multiple oral dose 15 mg once daily
[28] = ertugliflozin single dose 0.1 mg administered intravenously
[29] = ertugliflozin single oral dose 0.5 mg
[30] = ertugliflozin single oral dose 2.5 mg
[31] = ertugliflozin single oral dose 10 mg
[32] = ertugliflozin single oral dose 15 mg
[33] = ertugliflozin single oral dose 30 mg
[34] = ertugliflozin single oral dose 100 mg
[35] = ertugliflozin single oral dose 300 mg
[36] = retrospectively calculated from CLiv, CLr, CYP fm and reaction phenotyping
[37] = ertugliflozin single oral dose 0.5 mg, geometric mean (%CV)
[38] = ertugliflozin single oral dose 2.5 mg, geometric mean (%CV)
[39] = ertugliflozin single oral dose 10 mg, geometric mean (%CV)
[40] = ertugliflozin single oral dose 30 mg, geometric mean (%CV)
[41] = ertugliflozin single oral dose 100 mg, geometric mean (%CV)
[42] = ertugliflozin single oral dose 300 mg, geometric mean (%CV)

CCOc1ccc(Cc2cc([C@@H]3O[C@H](CO)[C@@H](O)[C@H](O)[C@H]3O)ccc2Cl)cc1 [Dapagliflozin, dapagliflozin]
AUC predicted/ observed ratio (PBPK model; [21]): 1.06 | Cmax predicted/ observed ratio (PBPK model; [21]): 1.03 | AUC predicted/ observed ratio (PBPK model; [22]): 1.06 | Cmax predicted/ observed ratio (PBPK model; [22]): 0.84 | AUC predicted/ observed ratio (PBPK model; [23]): 0.92 | Cmax predicted/ observed ratio (PBPK model; [23]): 0.87 | Fe observed (fraction excreted unchanged in urine) [1]: 0.02 | AUCR predicted/observed ratio (PBPK): 1.0 | CmaxR predicted/observed ratio (PBPK): 1.0 | fm,UGT1A9 observed (UGT1A9 [2]): 0.79 | microsomal CLint (UGT1A9 [2]): 30 µL/min/mg | Relative contribution of UGT1A9 to UGT metabolism (UGT1A9 [2]; in vitro UGT reaction phenotyping of this paper (HLM with UGT1A9 inhibitors)): 90% | fm,UGT2B7 observed (UGT2B4/2B7 [3]): 0.09 | Remaining UGT metabolism assigned to UGT2B7 (UGT2B4/2B7 [3]; remainder after UGT1A9 contribution): 10% | microsomal CLint [4]: 3 µL/min/mg | microsomal CLint (CYP): 4 µL/min/mg | LogP [5]: 2.52 | B/P ratio [6]: 0.88 | Caco‐2 permeability coefficient (Caco‐2): 15.9 10^–6 cm/s | Vss [7, 24]: 1.19 L/kg | Observed Cmax [7, 21]: 119 ng/mL | Observed Cmax [7, 22]: 728 ng/mL | Observed AUCinf [7, 25]: 628 ng·h/mL | Observed Cmax [7, 25]: 143 ng/mL | CLiv [7, 24]: 12.4 L/h | Absolute bioavailability (F) ([7]; oral, ref 15 (ertugliflozin), 38 (dapagliflozin)): 78% | Renal excretion of unchanged drug [8]: 2% | Elimination by glucuronidation [8]: 88% | Elimination by oxidation (converted to oxidative metabolites) [8]: 10% | Increase in dapagliflozin exposure ([9]; co-administration with mefenamic acid): 51% | Share of systemic UGT clearance occurring in the liver (UGT): 90%

CCOc1ccc(Cc2cc([C@]34OC[C@](CO)(O3)[C@@H](O)[C@H](O)[C@H]4O)ccc2Cl)cc1 [Ertugliflozin, ertugliflozin]
AUC predicted/ observed ratio (PBPK model; [26]): 1.03 | Cmax predicted/ observed ratio (PBPK model; [26]): 1.22 | AUC predicted/ observed ratio (PBPK model; [27]): 0.97 | Cmax predicted/ observed ratio (PBPK model; [27]): 1.04 | AUC predicted/ observed ratio (PBPK model; [28]): 1.08 | Cmax predicted/ observed ratio (PBPK model; [28]): 0.98 | AUC predicted/ observed ratio (PBPK model; [29]): 0.82 | Cmax predicted/ observed ratio (PBPK model; [29]): 1.16 | AUC predicted/ observed ratio (PBPK model; [30]): 0.81 | Cmax predicted/ observed ratio (PBPK model; [30]): 0.98 | AUC predicted/ observed ratio (PBPK model; [31]): 0.82 | Cmax predicted/ observed ratio (PBPK model; [31]): 0.92 | AUC predicted/ observed ratio (PBPK model; [32]): 0.81 | Cmax predicted/ observed ratio (PBPK model; [32]): 0.97 | AUC predicted/ observed ratio (PBPK model; [33]): 0.80 | Cmax predicted/ observed ratio (PBPK model; [33]): 0.92 | AUC predicted/ observed ratio (PBPK model; [34]): 0.78 | Cmax predicted/ observed ratio (PBPK model; [34]): 1.04 | AUC predicted/ observed ratio (PBPK model; [35]): 0.83 | Cmax predicted/ observed ratio (PBPK model; [35]): 1.13 | Fe observed (fraction excreted unchanged in urine) [1]: 0.02 | fm,UGT1A9 observed (UGT1A9 [2]): 0.70 | microsomal CLint (UGT1A9 [2]): 35 µL/min/mg | fm,UGT2B7 observed (UGT2B4/2B7 [3]): 0.16 | microsomal CLint [4]: 8 µL/min/mg | fm,CYP3A4 observed (CYP3A4 [10]; fm,CYP × % contribution): 0.103 | CLint, CYP: CYP3A4 (CYP3A4 [10]; [36]): 0.041 µL/min/pmol | fm,CYP3A5 observed (CYP3A5 [11]; fm,CYP × % contribution): 0.012 | CLint, CYP: CYP3A5 (CYP3A5 [11]; [36]): 0.006 µL/min/pmol | fm,CYP2C8 observed (CYP2C8 [12]; fm,CYP × % contribution): 0.005 | CLint, CYP: CYP2C8 (CYP2C8 [12]; [36]): 0.011 µL/min/pmol | LogP [5]: 2.5 | Fu,plasma [13]: 0.064 | B/P ratio [6]: 0.66 | Caco‐2 permeability coefficient (Caco‐2): 4.1 10^–6 cm/s | Vss [7, 24]: 1.23 L/kg | Observed AUCinf [7, 37]: 45.7 (10) ng·h/mL | Observed Cmax [7, 37]: 7.23 (11) ng/mL | Observed AUCinf [7, 38]: 231 (22) ng·h/mL | Observed Cmax [7, 38]: 42.8 (21) ng/mL | Observed AUCinf [7, 39]: 909 (15) ng·h/mL | Observed Cmax [7, 39]: 182 (22) ng/mL | Observed AUCinf [7, 40]: 2810 (18) ng·h/mL | Observed Cmax [7, 40]: 545 (24) ng/mL | Observed AUCinf [7, 41]: 9610 (16) ng·h/mL | Observed Cmax [7, 41]: 1620 (16) ng/mL | Observed AUCinf [7, 42]: 26400 (16) ng·h/mL | Observed Cmax [7, 42]: 4330 (20) ng/mL | Fa ([7]; fraction absorbed, absolute bioavailability study): 1.0 | CLiv [7, 24]: 11.2 L/h | Renal excretion of unchanged drug [8]: ~ 2% | Elimination by glucuronidation [8]: ~ 86% | Elimination by oxidation (converted to oxidative metabolites) [8]: ~ 12% | Relative contribution of UGT1A9 to glucuronidation (UGT1A9 [14]): 81% | Relative contribution of UGT2B4/2B7 to glucuronidation (UGT2B4/2B7 [15]; in vitro UGT reaction phenotyping, assigned to UGT2B7 in model): 19% | Contribution of CYP3A4 to oxidative metabolism (CYP3A4 [16]): 86% | Contribution of CYP3A4 to oxidative metabolism (CYP3A4 [16]; listed as ertugliflozin): 86% and 85–100% | Contribution of CYP3A5 to oxidative metabolism (CYP3A5 [17]): 10% | Contribution of CYP3A5 to oxidative metabolism (CYP3A5 [17]; listed as ertugliflozin): 10% and 0–10% | Contribution of CYP2C8 to oxidative metabolism (CYP2C8 [18]): 4% | Contribution of CYP2C8 to oxidative metabolism (CYP2C8 [18]; listed as ertugliflozin): 4% and 0–4% | Share of systemic UGT clearance occurring in the liver (UGT): 90%

Cc1cccc(Nc2ccccc2C(=O)O)c1C [MFA, mefenamic acid]
AUC predicted/ observed ratio (PBPK model; MFA single oral dose 500 mg): 0.89 | Cmax predicted/ observed ratio (PBPK model; MFA single oral dose 500 mg): 0.92 | Inhibition of UGT2B4 in vitro (UGT2B4): did not inhibit | Fold adjustment of in vitro to in vivo UGT Ki values (increased potency) (UGT1A9 [19]): ~ 2.9 fold | LogP [5]: 5.4 | pKa ([5]; ref DrugBank 49): 3.89 | Observed AUCinf ([7]; MFA single oral dose 500 mg): 34200 ng·h/mL | Observed Cmax ([7]; MFA single oral dose 500 mg): 6900 ng/mL

Cc1ccc([C@@H]2O[C@H](CO)[C@@H](O)[C@H](O)[C@H]2O)cc1Cc1ccc(-c2ccc(F)cc2)s1 [canagliflozin]
Increase in canagliflozin exposure ([9]; co-administration with probenecid): 21%

Nc1nc(CC(=O)Nc2ccc(CCNC[C@H](O)c3ccccc3)cc2)cs1 [mirabegron]
UGT2B7-mediated metabolism incorporated in PBPK model (UGT2B4/2B7 [15]): ~ 30%

CCCN(CCC)S(=O)(=O)c1ccc(C(=O)O)cc1 [probenecid]
estimated unbound maximum steady-state concentration (Cmax,ss,u) [20]: 29 µM
